What was measured:
NPY Y1 receptor = target: T1, NPY Y1 receptor (Homo sapiens, UniProt P25929); test: CEREP binding panel, NPY Y1
T1 construct: CEREP
T1 sequence (P25929 1-384): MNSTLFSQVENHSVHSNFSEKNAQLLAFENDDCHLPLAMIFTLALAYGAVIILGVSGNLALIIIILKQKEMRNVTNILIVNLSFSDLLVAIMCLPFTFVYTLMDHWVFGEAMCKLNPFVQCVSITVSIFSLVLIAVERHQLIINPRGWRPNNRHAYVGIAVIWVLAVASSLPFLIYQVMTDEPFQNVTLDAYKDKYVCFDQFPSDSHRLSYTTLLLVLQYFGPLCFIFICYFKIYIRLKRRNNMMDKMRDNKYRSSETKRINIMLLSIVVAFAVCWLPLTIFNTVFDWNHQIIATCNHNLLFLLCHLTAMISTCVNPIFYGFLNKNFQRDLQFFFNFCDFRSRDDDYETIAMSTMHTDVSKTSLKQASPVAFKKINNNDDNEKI
Experimental: (§1) The selectivity of the compound of formula (A) was further evaluated in a large variety of ion-channels, transporters and receptor-binding assays including the Y1 receptor subtype. These assays were performed by CEREP (Celles L'Evescault, France; www.cere.com<http//www.cerea.com>). Selectivity vs the Y5 receptor subtype was evaluated as described in Bonaventure, P., D. Nepomuceno, C. Mazur, B. Lord, D. A. Rudolph, J. A. Jablonowski, N. I. Carruthers and T. W. Lovenberg, J Pharmacol Exp Ther. 2004, 308, 1130.
(§2) The compound of formula (A) was assayed by binding in a panel of 50 receptors, ion channels and transporters assays (CEREP) including adenosine (A1,A2A,A3), adrenergic (α1, α2, β1), angiotensin (AT1), dopamine (D1, D2), bradykinin (B2), cholecystokinin (CCKA), galanin (GAL2), melatonin ML1), muscarinic (M1, M2, M3), neurotensin (NTS), neurokinin (NK2, NK3), NPY (Y1, Y2) opiate (m, k, d), serotonin (5-HT1A, 5-HT1B, 5-HT2A, 5-HT3, 5-HT5A, 5-HT6, 5-HT7), somatostatin, vasopressin (V1a), norepinephrine transporter, dopamine transporter and ion channels (sodium, calcium, potassium and chloride).

human Y2 receptor = target: T2, human Y2 receptor (Homo sapiens, UniProt P49146); test: Neuropeptide Y2 radioligand binding assay, [125I]PYY, KAN-Ts cells; conditions: KANT-S cells, mean ± S.E.M., read-out: hY2 pKi (converted)
T2 construct: KAN-Ts endogenously expressing Y2 receptors were used; endogenous in cells; host or cells: KAN-Ts cells
T2 sequence (P49146 1-381): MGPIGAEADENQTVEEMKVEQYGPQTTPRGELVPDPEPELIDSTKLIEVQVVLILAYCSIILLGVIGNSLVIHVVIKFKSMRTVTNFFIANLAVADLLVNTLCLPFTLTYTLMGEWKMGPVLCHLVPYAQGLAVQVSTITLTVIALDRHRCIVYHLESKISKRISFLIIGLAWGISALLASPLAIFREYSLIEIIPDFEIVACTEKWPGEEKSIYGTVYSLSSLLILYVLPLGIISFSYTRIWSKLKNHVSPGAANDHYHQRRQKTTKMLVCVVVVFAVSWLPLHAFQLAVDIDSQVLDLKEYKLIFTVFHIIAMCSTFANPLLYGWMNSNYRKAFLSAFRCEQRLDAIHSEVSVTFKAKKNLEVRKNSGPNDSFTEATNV
Experimental: Radioligand binding assays for the human and rat/mouse Y2 receptor were performed as described in Bonaventure, P., D. Nepomuceno, C. Mazur, B. Lord, D. A. Rudolph, J. A. Jablonowski, N. I. Carruthers and T. W. Lovenberg, J Pharmacol Exp Ther. 2004, 308, 1130.
KAN-Ts endogenously expressing Y2 receptors were used, for the rat and mouse Y2 receptor, membranes from rat or mouse hippocampus were prepared. Membranes were incubated with [^125I]PYY (80 pM) in the presence or absence of test compound for 1 h at rt. The reaction was stopped by filtration through GF/C filter plates pre-soaked in 0.3% polyethylenimine and subsequently washed with Tris-HCl, 50 mM, 5 mM EDTA buffer. Plates were dried for 1 h in a 55° C. oven, scintillation fluid was added and the radioactivity was counted in a Packard TopCount. Specific binding to the NPY receptor subtypes was determined by radioactivity that was bound in the presence of 1 μM NPY.
Apparent Ki values were calculated as K=IC50/(1+C/KD), where C is concentration of the radioligand and pKi=−log Ki. Data presented below are expressed as mean±S.E.M.

[1] = test system: ethanol-induced hyperactivity; test: Ethanol-induced hyperactivity (locomotor activity) in c57bl6/j mice; assay type: in vivo; conditions: 10 mg/kg i.p.
Description: C57bl6/j mice readily self-administer ethanol and these mice are sensitive to the stimulant effects of alcohol. NPY immunoreactivity is reduced in these mice. In addition, mice lacking NPY drink more ethanol than wild type mice; whereas, mice over-expressing NPY have reduced preference for ethanol. Experiments were designed to test the hypothesis that selective blockade of Y2 receptors by the compound of formula (A) decreases ethanol stimulant effects presumable by enhancing NPY function in the brain.
Locomotor activity was measured with a Hamilton Kinder motor monitor infrared beam apparatus equipped with a SmartFrame cage rack throughout which basic movements were recorded. Experiments assessed the effects of the compound of formula (A) on ethanol-induced hyperactivity in 8-10-week old c57bl6/j mice and were conducted using a between subject design. Vehicle (10 ml/kg, i.p.) or the compound of formula (A) (10 mg/kg, i.p.) was administered 15 min prior to the beginning of the session. Thereafter, animals received an acute injection of either vehicle (10 ml/kg, i.p.) or ethanol (1 g/kg, i.p), then they were immediately placed in the apparatus and locomotor activity was evaluated for 15 min. Data were analyzed with two-way repeated ANOVA using Graph Pad.

NPY Y2 receptor = target: T3, NPY Y2 receptor (Homo sapiens, UniProt P49146); test: CEREP binding panel, NPY Y2
T3 sequence (P49146 1-381): T2 sequence (P49146 1-381)
Experimental: as §1, §2

Which results are given for CCN(CC)C(=O)C(c1ccccc1)N1CCN(c2ccc(NC(=O)c3ccccc3-c3cccnc3)cc2F)CC1 (racemic) [Cmpd (A), N-{4-[4-(Diethylcarbamoyl-phenyl-methyl)-piperazin-1-yl]-3-fluoro-phenyl}-2-pyridin-3-yl-benzamide]?
inhibition at 1 µM (NPY Y1 receptor): 10%; Ki (human Y2 receptor): 5.5 nM; effect on ethanol-induced hyperactivity ([1]; 15 min before ethanol 1 g/kg i.p.): significantly reduced ethanol hyperactivity; effect on locomotor activity by itself ([1]; no ethanol): did not change locomotor activity by itself; inhibition at 1 µM (NPY Y2 receptor): 100%
